Measurements from ChEMBL document CHEMBL1201862, “PubChem BioAssay data set” (2004).
Where “and” joins values, the source holds several entries; their conditions need not be identical. Identical values can stand only once.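 The compound was tested at five concentrations on cells cultured in 96-well plates, with a 48-hour exposure period. At the GI50, growth is halved.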 Calls of active or inactive are those of the source. Rule as the data show it: active = GI50 up to about 1.1 µM and inactive = higher.

Key:
Test in all cases: NCI-60 cell line screen, 48 h
[1] = system: MOLT-4
[2] = system: NCI-H522
[3] = system: SK-OV-3
[4] = system: IGROV-1
[5] = system: SK-MEL-2
[6] = system: MDA-MB-435
[7] = system: SNB-19
[8] = system: TK-10
[9] = system: KM12
[10] = system: Malme-3M
[11] = system: NCI-H23
[12] = system: A549
[13] = system: HL-60
[14] = system: NCI/ADR-RES
[15] = system: Hs-578T
[16] = system: LOX IMVI
[17] = system: OVCAR-8
[18] = system: RPMI-8226
[19] = system: HT-29
[20] = system: HOP-92

Measured: GI50

C=CCCC(=O)N1CCC(C(=O)OCC)C1=O (stereo not given)
inactive: [1] > 100 µM | [2] > 100 µM | [3] > 100 µM | [4] > 100 µM | [5] > 100 µM | [6] > 100 µM | [7] > 100 µM | [8] > 100 µM | [9] > 100 µM | [10] > 100 µM | [11] > 100 µM | [12] > 100 µM | [13] > 100 µM | [14] > 100 µM | [15] > 100 µM | [16] > 100 µM | [17] > 100 µM

S=C(NCCc1ccccn1)c1nc[nH]c1C(=S)NCCc1ccccn1
inactive: [18] 26 µM | [19] > 100 µM | [3] > 100 µM | [20] 53.6 µM | [4] 34.9 µM | [5] 47.8 µM | [6] 30.1 µM | [7] 60.3 µM | [8] 62.1 µM | [9] 24 µM | [10] 35.4 µM | [11] 39.4 µM | [12] 32.3 µM | [14] 20.5 µM | [15] 20.7 µM | [16] 20.7 µM | [17] 28.4 µM

c1cc2c3c(c1)[C@@H]1O[C@@H]1c1cccc(c1-3)[C@@H]1O[C@H]21
inactive: [1] 35 µM | [19] 17.7 µM | [2] 14.8 µM | [3] > 100 µM | [20] 20.8 µM | [5] 17.4 µM | [6] 14.3 µM | [7] 53.3 µM | [8] 32.2 µM | [9] 17.1 µM | [10] 15.4 µM | [11] 16.4 µM | [12] 31.6 µM | [14] 22.4 µM | [15] 17.6 µM | [16] 3.08 µM | [17] 17.9 µM

C=C1C(=O)OC2/C=C(\CO)C(OC(C)=O)CC(O)/C(C)=C/C(OC(=O)C(C)CC)C12 (stereo not given)
inactive: [19] 16.3 µM and 21 µM | [2] 4.57 µM and 3.4 µM | [3] > 100 µM | [20] 18.5 µM and 21.7 µM | [4] 38.4 µM and 40 µM | [5] 17.5 µM and 17.1 µM | [6] 20.3 µM | [7] 50.1 µM and 75.7 µM | [8] 17.6 µM and 19.3 µM | [10] 13.5 µM and 15.3 µM | [11] 24.2 µM and 17.2 µM | [12] 45.8 µM and 37.3 µM | [13] 5.86 µM and 4.97 µM | [14] > 100 µM | [15] 36.9 µM | [16] 18.8 µM and 13.7 µM | [17] 21.7 µM and 17.7 µM

COc1cc(/C=N/NC(=O)c2c(Cl)c(Cl)c(Cl)c(Cl)c2-c2nc3ccccc3[nH]2)ccc1O
inactive: [1] 18 µM | [19] 22.2 µM | [2] 30.6 µM | [3] 35.5 µM | [20] 10.8 µM | [4] 14 µM | [5] 20.3 µM | [6] 29 µM | [7] 30.5 µM | [9] 24.2 µM | [10] 21.7 µM | [11] 19.9 µM | [12] 29.9 µM | [13] 21.2 µM | [14] > 100 µM | [15] 44 µM | [16] 22.4 µM | [17] 31.1 µM

CC(C)=CCOc1cc(NC(=S)c2ccoc2C)ccc1Cl [UC 781]
inactive: [1] 9.38 µM | [18] > 100 µM | [19] > 100 µM | [2] > 100 µM | [3] > 100 µM | [20] 8.77 µM | [4] 65.2 µM | [5] > 100 µM | [6] > 100 µM | [7] 81.1 µM | [8] > 100 µM | [9] > 100 µM | [10] > 100 µM | [11] > 100 µM | [12] > 100 µM | [14] > 100 µM | [15] 48.6 µM | [16] 14.1 µM | [17] 34.8 µM

C=C(C)CC1=C(C(=S)NCCO[Si](C)(C)C(C)(C)C)C(OCC)(OCC)C1=O
inactive: [1] > 100 µM | [19] 9.59 µM | [2] 13.7 µM | [3] 18.2 µM | [20] 29.8 µM | [4] 15.9 µM | [5] 17 µM | [6] 16.9 µM | [7] 17.7 µM | [8] 16.1 µM | [9] 16.7 µM | [10] 12.7 µM | [11] 16.9 µM | [12] 15.2 µM | [13] > 100 µM | [14] 36.1 µM | [15] 24.8 µM | [16] 15.8 µM | [17] 40.6 µM

O=C1COC(c2ccccc2O)=NN1CCCN1CCCC1
inactive: [1] > 100 µM | [18] > 100 µM | [19] > 100 µM | [2] > 100 µM | [3] > 100 µM | [20] > 100 µM | [4] > 100 µM | [5] > 100 µM | [6] > 100 µM | [7] > 100 µM | [8] > 100 µM | [9] > 100 µM | [10] > 100 µM | [11] > 100 µM | [12] > 100 µM | [14] > 100 µM | [15] > 100 µM | [17] > 100 µM

O=C1c2ccccc2/N=C(/c2cc3c(cc2Cl)Sc2nccn2S3(=O)=O)OS(=O)(=O)N1c1ccccc1
inactive: [1] 9.33 µM | [18] 18.6 µM | [19] 23.3 µM | [2] 5.31 µM | [3] 36.3 µM | [20] 80.5 µM | [6] 21.3 µM | [7] 33.7 µM | [8] 24.4 µM | [9] 23 µM | [10] 73.8 µM | [11] 22.4 µM | [12] 30.3 µM | [13] 31.3 µM | [15] 46.8 µM | [16] 8.09 µM | [17] 17.4 µM

CC1(C)SC2C(NC(=O)C(C(=O)O)c3ccccc3)C(=O)N2C1C(=O)O (stereo not given)
inactive: [1] > 100 µM | [18] > 100 µM | [19] > 100 µM | [3] > 100 µM | [4] > 100 µM | [5] > 100 µM | [6] > 100 µM | [7] > 100 µM | [8] > 100 µM | [9] > 100 µM | [10] > 100 µM | [11] > 100 µM | [13] > 100 µM | [14] > 100 µM | [15] > 100 µM | [16] > 100 µM | [17] > 100 µM

CC(C)(C)OC(=O)N1CC(O)O[C@H](c2ccccc2)[C@@H]1c1ccccc1 (stereo not given in full)
inactive: [1] 30.4 µM | [18] 24.7 µM | [19] 20.6 µM | [2] 21.2 µM | [3] 14.9 µM | [20] 16.7 µM | [4] 18.9 µM | [5] 14.5 µM | [6] 17.3 µM | [7] 15.7 µM | [8] 17.8 µM | [9] 19.2 µM | [10] 19.4 µM | [11] 15.9 µM | [12] 18.7 µM | [14] 26.4 µM | [15] 32.4 µM | [16] 35.7 µM | [17] 29.7 µM
